Measurements as given in patent publication US9656996B2, “Fused heterocyclic compound, preparation method therefor, pharmaceutical composition, and uses thereof” (SHANGHAI YINGLI PHARMACEUTICAL CO., LTD., priority 2013, dated 2017).

What was measured:
[1] = target: PI3Kδ (Homo sapiens (Human), UniProt O00329); assay: PI3Kδ enzymatic inhibitory activity IC50 assay; format: biochemical; conditions: luminescence readout, 25 μM ATP, 50 μM PIP2, 2 hours at room temperature
Description: (§1) 1. Buffer preparation: 50 mM HEPES, pH 7.5, 3 mM MgCl2, 1 mM EGTA, 100 mM NaCl, 0.03% CHAPS.
(§2) 2. The compound was formulated in 100% DMSO in a concentration gradient, and deposited to a 384-well plate with a final DMSO concentration of 1%.
(§3) 3. PI3Kα, PI3Kδ, PI3Kβ and PI3Kγ enzymes (purchased from EMD Millipore) were diluted to the optimal concentration with the following buffer: 50 mM HEPES, pH 7.5, 3 mM MgCl2, 1 mM EGTA, 100 mM NaCl, 0.03% CHAPS, 2 mM DTT, transferred to a 384-well plate and incubated with the compound for a certain time.
(§4) 4. The substrate was diluted to an optimal concentration with the following buffer: 50 mM HEPES, pH 7.5, 3 mM MgCl2, 1 mM EGTA, 100 mM NaCl, 0.03% CHAPS, 2 mM DTT, 50 μM PIP2, 25 μM ATP and added to the 384-well plate to initiate the reaction. PI3Kα, PI3Kβ and PI3Kγ were allowed to react for 1 h at room temperature, and PI3Kδ reacted for 2 hours at room temperature. Another 10 μL ADP-Glo Detection Reagent also needed to be added for PI3Kβ and PI3Kγ, and then equilibrated at room temperature for 30 minutes.
(§5) 5. Luminescence was read by using Flexstation, and the inhibition rate was calculated as the average value of two tests.

[2] = target: PI3Kα (Homo sapiens (Human), UniProt P42336); assay: PI3Kα enzymatic inhibitory activity IC50 assay; format: biochemical; conditions: selectivity ratio
Description: as §1, §2, §3, §4, §5

[3] = test system: Raji cell TNF-α generation; assay: Inhibition of human Raji cell TNF-α generation induced by human IgM (ELISA); format: cell-based; conditions: Raji cells, IgM stimulation, 24 hours
Description: 1. Raji cell line (human Burkitt's lymphoma origin) (ATCC, Cat#CCL-86) was used.
2. Raji cells were applied onto the 96-well plate with 1×10^5/well.
3. The compounds to be screened were diluted to the corresponding test concentration, and added to the cell culture system 30 minutes prior to IgM stimulation.
4. 10 µg/ml IgM monoclonal antibody (JACKSON, Cat#109-006-129) was added to the cell culture system in order to stimulate the cells generating TNF-α.
5. After 24 hours, the amount of TNF-α produced by the cell line was determined by ELISA.
6. The inhibition rates at each concentration of the compound were calculated and plotted to calculate 50% inhibition rate (IC50), and the specific results were shown in table 3.

[4] = target: PI3Kβ (Homo sapiens (Human), UniProt P42338); assay: PI3Kβ enzymatic inhibitory activity IC50 assay; format: biochemical; conditions: selectivity ratio
Description: as §1, §2, §3, §4, §5

[5] = target: PI3Kγ (Homo sapiens (Human), UniProt P48736); assay: PI3Kγ enzymatic inhibitory activity IC50 assay; format: biochemical; conditions: selectivity ratio
Description: as §1, §2, §3, §4, §5

Sequence of PI3Kγ (P48736 whole entry, species assumed): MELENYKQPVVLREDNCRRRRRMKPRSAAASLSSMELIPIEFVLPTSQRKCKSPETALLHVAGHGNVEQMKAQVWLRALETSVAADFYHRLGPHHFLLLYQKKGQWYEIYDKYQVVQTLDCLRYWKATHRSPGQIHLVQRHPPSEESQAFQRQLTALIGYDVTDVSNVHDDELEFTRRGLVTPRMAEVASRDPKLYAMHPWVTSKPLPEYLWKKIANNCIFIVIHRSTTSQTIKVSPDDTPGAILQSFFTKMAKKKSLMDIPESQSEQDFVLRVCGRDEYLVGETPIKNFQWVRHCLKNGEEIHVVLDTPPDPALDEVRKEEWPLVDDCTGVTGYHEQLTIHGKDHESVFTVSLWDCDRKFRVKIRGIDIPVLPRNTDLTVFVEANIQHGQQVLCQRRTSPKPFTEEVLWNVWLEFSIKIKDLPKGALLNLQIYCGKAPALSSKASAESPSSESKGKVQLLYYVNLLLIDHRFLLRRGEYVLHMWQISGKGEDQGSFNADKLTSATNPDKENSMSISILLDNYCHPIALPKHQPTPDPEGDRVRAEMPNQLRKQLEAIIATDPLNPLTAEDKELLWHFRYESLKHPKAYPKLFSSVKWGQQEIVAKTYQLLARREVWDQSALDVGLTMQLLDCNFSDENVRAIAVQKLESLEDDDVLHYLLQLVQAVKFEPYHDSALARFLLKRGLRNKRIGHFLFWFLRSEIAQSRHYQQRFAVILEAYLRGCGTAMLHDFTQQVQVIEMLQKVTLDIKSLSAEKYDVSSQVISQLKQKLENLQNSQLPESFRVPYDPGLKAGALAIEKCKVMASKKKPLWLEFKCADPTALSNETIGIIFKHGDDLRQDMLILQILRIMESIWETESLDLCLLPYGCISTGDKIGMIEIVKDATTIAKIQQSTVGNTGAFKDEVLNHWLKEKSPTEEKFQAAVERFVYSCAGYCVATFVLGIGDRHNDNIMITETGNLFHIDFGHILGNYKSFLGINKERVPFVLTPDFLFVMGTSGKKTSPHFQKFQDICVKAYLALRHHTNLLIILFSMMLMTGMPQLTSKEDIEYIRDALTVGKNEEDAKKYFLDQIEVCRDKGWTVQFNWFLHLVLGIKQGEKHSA
Sequence of PI3Kβ (P42338 whole entry, species assumed): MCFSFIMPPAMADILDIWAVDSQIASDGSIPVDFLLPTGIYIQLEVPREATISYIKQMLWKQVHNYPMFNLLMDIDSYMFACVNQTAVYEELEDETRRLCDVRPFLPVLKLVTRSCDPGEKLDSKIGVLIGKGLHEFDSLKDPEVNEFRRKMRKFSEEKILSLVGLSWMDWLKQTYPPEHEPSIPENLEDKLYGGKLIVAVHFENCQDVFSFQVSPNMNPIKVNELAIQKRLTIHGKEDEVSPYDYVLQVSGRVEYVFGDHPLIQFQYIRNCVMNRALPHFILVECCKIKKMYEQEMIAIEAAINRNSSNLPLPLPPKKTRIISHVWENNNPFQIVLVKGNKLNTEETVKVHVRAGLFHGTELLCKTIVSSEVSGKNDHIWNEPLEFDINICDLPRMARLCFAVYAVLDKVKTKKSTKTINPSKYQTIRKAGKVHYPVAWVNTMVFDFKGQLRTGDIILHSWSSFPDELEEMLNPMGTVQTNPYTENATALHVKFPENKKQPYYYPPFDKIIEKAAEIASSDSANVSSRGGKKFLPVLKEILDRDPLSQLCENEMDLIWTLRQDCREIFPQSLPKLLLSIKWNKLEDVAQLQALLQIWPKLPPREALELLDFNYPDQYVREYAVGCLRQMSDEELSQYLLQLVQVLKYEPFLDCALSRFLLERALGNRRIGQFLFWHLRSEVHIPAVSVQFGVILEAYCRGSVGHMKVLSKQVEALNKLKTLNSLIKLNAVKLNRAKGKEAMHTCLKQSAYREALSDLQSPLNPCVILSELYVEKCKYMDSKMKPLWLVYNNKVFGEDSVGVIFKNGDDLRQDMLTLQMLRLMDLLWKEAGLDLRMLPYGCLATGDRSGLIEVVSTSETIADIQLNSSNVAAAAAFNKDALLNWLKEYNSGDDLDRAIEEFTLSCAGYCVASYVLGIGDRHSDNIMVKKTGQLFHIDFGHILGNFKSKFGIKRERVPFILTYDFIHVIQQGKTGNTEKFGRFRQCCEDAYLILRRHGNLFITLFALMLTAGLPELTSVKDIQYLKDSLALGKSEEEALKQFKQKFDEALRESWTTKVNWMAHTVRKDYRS
Sequence of PI3Kβ (P27986 whole entry partner, species assumed): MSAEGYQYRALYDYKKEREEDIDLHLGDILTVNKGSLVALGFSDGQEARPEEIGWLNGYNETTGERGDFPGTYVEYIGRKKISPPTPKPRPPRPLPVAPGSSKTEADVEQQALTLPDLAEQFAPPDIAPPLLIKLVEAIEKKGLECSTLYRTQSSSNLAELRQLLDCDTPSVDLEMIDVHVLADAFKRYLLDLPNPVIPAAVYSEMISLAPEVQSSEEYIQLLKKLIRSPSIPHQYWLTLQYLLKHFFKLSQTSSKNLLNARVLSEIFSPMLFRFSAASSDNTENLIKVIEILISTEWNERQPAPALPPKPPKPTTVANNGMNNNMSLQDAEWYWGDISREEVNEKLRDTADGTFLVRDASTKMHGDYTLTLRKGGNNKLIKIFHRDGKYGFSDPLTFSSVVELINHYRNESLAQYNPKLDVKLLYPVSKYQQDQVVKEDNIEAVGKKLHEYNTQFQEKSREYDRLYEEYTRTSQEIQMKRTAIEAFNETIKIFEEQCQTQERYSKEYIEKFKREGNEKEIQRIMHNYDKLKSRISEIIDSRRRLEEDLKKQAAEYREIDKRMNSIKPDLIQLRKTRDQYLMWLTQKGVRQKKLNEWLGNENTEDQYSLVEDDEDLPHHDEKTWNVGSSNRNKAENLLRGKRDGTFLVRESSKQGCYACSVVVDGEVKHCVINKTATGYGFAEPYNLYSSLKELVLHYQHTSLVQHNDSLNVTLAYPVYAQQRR
Sequence of PI3Kα (P42336 whole entry, species assumed): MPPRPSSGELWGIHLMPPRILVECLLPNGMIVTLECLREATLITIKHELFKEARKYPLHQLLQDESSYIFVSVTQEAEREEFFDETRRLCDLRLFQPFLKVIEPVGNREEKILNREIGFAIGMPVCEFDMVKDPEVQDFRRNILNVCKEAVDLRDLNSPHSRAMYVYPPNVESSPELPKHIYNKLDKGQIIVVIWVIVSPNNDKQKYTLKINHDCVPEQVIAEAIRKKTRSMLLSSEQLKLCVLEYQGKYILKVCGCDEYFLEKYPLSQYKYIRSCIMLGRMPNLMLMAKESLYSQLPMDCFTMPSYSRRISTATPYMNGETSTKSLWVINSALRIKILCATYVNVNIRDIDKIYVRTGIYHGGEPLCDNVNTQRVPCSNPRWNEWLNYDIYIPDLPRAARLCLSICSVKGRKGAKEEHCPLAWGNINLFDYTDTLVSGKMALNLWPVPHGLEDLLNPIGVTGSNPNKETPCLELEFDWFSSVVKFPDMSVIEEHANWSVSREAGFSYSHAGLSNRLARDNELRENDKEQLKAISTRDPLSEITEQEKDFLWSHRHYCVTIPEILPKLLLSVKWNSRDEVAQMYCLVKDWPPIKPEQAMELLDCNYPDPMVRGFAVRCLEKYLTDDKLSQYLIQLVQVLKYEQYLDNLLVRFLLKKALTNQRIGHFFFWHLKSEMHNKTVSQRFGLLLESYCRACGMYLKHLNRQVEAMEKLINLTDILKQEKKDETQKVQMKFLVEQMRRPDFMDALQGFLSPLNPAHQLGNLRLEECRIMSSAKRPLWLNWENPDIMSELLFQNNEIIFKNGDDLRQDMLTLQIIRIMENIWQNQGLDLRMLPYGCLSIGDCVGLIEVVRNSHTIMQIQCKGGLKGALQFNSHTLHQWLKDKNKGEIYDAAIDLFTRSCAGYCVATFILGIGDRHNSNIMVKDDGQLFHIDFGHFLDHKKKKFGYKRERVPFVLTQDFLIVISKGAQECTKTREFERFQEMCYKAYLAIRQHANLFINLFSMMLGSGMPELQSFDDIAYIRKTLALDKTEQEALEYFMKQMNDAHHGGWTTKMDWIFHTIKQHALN
Sequence of PI3Kα (P27986 whole entry partner, species assumed): as the sequence (P27986 whole entry partner, species assumed) above
Sequence of PI3Kδ (O00329 whole entry, species assumed): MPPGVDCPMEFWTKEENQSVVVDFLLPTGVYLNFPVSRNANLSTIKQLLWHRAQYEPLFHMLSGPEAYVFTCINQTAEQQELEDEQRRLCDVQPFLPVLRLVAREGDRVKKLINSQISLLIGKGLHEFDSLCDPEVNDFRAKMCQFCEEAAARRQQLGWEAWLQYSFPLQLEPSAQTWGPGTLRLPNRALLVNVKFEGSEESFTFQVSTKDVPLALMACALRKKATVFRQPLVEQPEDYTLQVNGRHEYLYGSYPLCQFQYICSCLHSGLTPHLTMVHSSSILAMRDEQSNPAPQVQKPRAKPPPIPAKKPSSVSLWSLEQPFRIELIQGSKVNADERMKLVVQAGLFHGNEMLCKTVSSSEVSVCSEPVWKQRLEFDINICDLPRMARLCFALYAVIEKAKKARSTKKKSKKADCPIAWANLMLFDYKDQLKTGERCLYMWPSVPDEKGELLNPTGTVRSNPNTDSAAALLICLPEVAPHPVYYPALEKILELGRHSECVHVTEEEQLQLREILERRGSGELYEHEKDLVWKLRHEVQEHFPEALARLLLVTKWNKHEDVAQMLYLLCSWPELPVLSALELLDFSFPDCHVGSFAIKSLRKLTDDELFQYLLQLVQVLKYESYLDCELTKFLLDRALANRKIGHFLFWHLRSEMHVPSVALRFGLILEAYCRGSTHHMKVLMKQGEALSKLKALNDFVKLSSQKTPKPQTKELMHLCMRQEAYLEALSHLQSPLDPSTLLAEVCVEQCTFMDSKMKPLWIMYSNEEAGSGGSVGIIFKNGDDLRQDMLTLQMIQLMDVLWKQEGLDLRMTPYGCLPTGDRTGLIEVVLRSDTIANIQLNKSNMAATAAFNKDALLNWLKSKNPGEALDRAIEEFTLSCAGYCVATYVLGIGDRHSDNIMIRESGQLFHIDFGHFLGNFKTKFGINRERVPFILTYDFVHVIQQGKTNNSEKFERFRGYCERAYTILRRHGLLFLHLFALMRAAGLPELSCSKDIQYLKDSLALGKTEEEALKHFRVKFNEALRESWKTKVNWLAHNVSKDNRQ
Sequence of PI3Kδ (P27986 whole entry partner, species assumed): as the sequence (P27986 whole entry partner, species assumed) above

## COc1ncc(-c2nc(N3CCOCC3)nc3c(CN4CCC(C(C)(C)O)CC4)cccc23)cc1NS(C)(=O)=O [Compound 1]
[1]
  IC50: 0.0076 µM
[2]
  α/δ (ratio of IC50 values against PI3Kα to PI3Kδ): 341
[3]
  IC50: 0.0291 µM

## COc1ncc(-c2nc(N3CCOCC3)nc3c(CN4CCC(OC)CC4)cccc23)cc1NS(C)(=O)=O [Compound 2]
[1]
  IC50: 0.017 µM
[2]
  α/δ (ratio of IC50 values against PI3Kα to PI3Kδ): 368
[3]
  IC50: 0.0927 µM

## COc1ncc(-c2nc(N3CCOCC3)nc3c(CN4CCC(N5CCCCC5)CC4)cccc23)cc1NS(C)(=O)=O [Compound 3]
[1]
  IC50: 0.031 µM
[2]
  α/δ (ratio of IC50 values against PI3Kα to PI3Kδ): 119
[3]
  IC50: 0.0317 µM

## C[C@@H](O)C(=O)N1CCN(Cc2cccc3c(-c4cnc(N)nc4)nc(N4CCOCC4)nc23)CC1 [Compound 4]
[1]
  IC50: 0.045 µM
[2]
  α/δ (ratio of IC50 values against PI3Kα to PI3Kδ): 2

## CS(=O)(=O)N1CCN(Cc2cccc3c(-c4cnc(N)nc4)nc(N4CCOCC4)nc23)CC1 [Compound 5]
[1]
  IC50: 0.0586 µM
[2]
  α/δ (ratio of IC50 values against PI3Kα to PI3Kδ): 1

## CS(=O)(=O)N1CCN(Cc2cccc3c(-c4cccc5[nH]ncc45)nc(N4CCOCC4)nc23)CC1 [Compound 6]
[1]
  IC50: 0.457 µM
[2]
  α/δ (ratio of IC50 values against PI3Kα to PI3Kδ): 2.4

## COc1ncc(-c2nc(N3CCOCC3)nc3c(CN4CCC(N5CCCCC5)CC4)cc(F)cc23)cc1NS(C)(=O)=O [Compound 7]
[1]
  IC50: 0.031 µM
[2]
  α/δ (ratio of IC50 values against PI3Kα to PI3Kδ): 130
[3]
  IC50: 0.0348 µM
[4]
  β/δ (ratio of IC50 values against PI3Kβ to PI3Kδ): 166
[5]
  γ/δ (ratio of IC50 values against PI3Kγ to PI3Kδ): >322

## COc1ncc(-c2nc(N3CCOCC3)nc3c(CN4CCC(N5CCCC5)CC4)cc(F)cc23)cc1NS(C)(=O)=O [Compound 8]
[1]
  IC50: 0.0098 µM
[2]
  α/δ (ratio of IC50 values against PI3Kα to PI3Kδ): 292
[3]
  IC50: 0.0284 µM

## COc1ncc(-c2nc(N3CCOCC3)nc3c(CN4CCC(N5CCC5)CC4)cc(F)cc23)cc1NS(C)(=O)=O [Compound 9]
[1]
  IC50: 0.019 µM
[2]
  α/δ (ratio of IC50 values against PI3Kα to PI3Kδ): 233

## COc1ncc(-c2nc(N3CCOCC3)nc3c(CN4CCC(C(C)(C)O)CC4)cc(F)cc23)cc1NS(C)(=O)=O [Compound 10]
[1]
  IC50: 0.0064 µM
[2]
  α/δ (ratio of IC50 values against PI3Kα to PI3Kδ): 320
[3]
  IC50: 0.066 µM
[4]
  β/δ (ratio of IC50 values against PI3Kβ to PI3Kδ): 31
[5]
  γ/δ (ratio of IC50 values against PI3Kγ to PI3Kδ): >1000

## CS(=O)(=O)N1CCN(Cc2cnn3c(-c4cccc5[nH]ncc45)cc(N4CCOCC4)nc23)CC1 [Compound 11]
[1]
  IC50: 0.606 µM
[2]
  α/δ (ratio of IC50 values against PI3Kα to PI3Kδ): 2.3

## CC(C)(O)C1CCN(Cc2cnc3c(-c4cncc(NS(C)(=O)=O)c4)nc(N4CCOCC4)cn23)CC1 [Compound 13]
[1]
  IC50: 0.239 µM
[2]
  α/δ (ratio of IC50 values against PI3Kα to PI3Kδ): >42

## CN1CCN(Cc2cnc3c(-c4cncc(NS(C)(=O)=O)c4)nc(N4CCOCC4)cn23)CC1 [Compound 14]
[1]
  IC50: 1.03 µM
[2]
  α/δ (ratio of IC50 values against PI3Kα to PI3Kδ): >9

## COc1ncc(-c2nc(N3CCOCC3)c3cc(CN4CCC(N5CCCCC5)CC4)ccc3n2)cc1NS(C)(=O)=O [Compound 15]
[1]
  IC50: 0.345 µM
[2]
  α/δ (ratio of IC50 values against PI3Kα to PI3Kδ): 23
[4]
  β/δ (ratio of IC50 values against PI3Kβ to PI3Kδ): >29
[5]
  γ/δ (ratio of IC50 values against PI3Kγ to PI3Kδ): >29

## COc1ncc(-c2nc(N3CCOCC3)c3sc(CN4CCC(C(C)(C)O)CC4)c(C)c3n2)cc1NS(C)(=O)=O [Compound 17]
[1]
  IC50: 0.0034 µM
[2]
  α/δ (ratio of IC50 values against PI3Kα to PI3Kδ): 38

## COc1ncc(-c2nc(N3CCOCC3)c3nc(OC4CCN(C5COC5)CC4)n(C)c3n2)cc1NS(C)(=O)=O [Compound 18]
[1]
  IC50: 0.0042 µM
[2]
  α/δ (ratio of IC50 values against PI3Kα to PI3Kδ): 11
[3]
  IC50: 0.0152 µM

## COc1ncc(-c2nc(N3CCOCC3)c3nc(OC4CN(C5CCCCC5)C4)n(C)c3n2)cc1NS(C)(=O)=O [Compound 19]
[1]
  IC50: 0.005 µM
[2]
  α/δ (ratio of IC50 values against PI3Kα to PI3Kδ): 88

## COc1ncc(-c2nc(N3CCOCC3)c3nc(OC4CCOCC4)n(C)c3n2)cc1NS(C)(=O)=O [Compound 20]
[1]
  IC50: 0.0046 µM
[2]
  α/δ (ratio of IC50 values against PI3Kα to PI3Kδ): 15

## COc1ncc(-c2nc(N3CCOCC3)c3nc(OC4CCC(N5CCCC5)CC4)n(C)c3n2)cc1NS(C)(=O)=O (centres unmarked) [Compound 21]
[1]
  IC50: 0.0153 µM
[2]
  α/δ (ratio of IC50 values against PI3Kα to PI3Kδ): 91

## Nc1ncc(-c2nc(N3CCOCC3)nc3c(CN4CCN(C(=O)CO)CC4)cc(F)cc23)cn1 [Compound 22]
[1]
  IC50: 0.031 µM
[2]
  α/δ (ratio of IC50 values against PI3Kα to PI3Kδ): 2

## COc1ncc(-c2nc(N3CCOCC3)nc3c(CN4CC[C@@H](N5CCCCC5=O)C4)cc(F)cc23)cc1NS(C)(=O)=O [Compound 24]
[1]
  IC50: 0.021 µM
[2]
  α/δ (ratio of IC50 values against PI3Kα to PI3Kδ): 45

## COc1ncc(-c2nc(N3CCOCC3)nc3c(CN4CCC[C@H]4C(C)(C)O)cc(F)cc23)cc1NS(C)(=O)=O [Compound 26]
[1]
  IC50: 0.087 µM
[2]
  α/δ (ratio of IC50 values against PI3Kα to PI3Kδ): 32

## COc1ncc(-c2nc(N3CCOCC3)nc3c(CN4CC(C(C)(C)O)C4)cc(F)cc23)cc1NS(C)(=O)=O [Compound 27]
[1]
  IC50: 0.024 µM
[2]
  α/δ (ratio of IC50 values against PI3Kα to PI3Kδ): 83
[3]
  IC50: 0.23 µM

## COc1ncc(-c2nc(N3CCOCC3)nc3c(OC4CCC(C(C)(C)O)CC4)cc(F)cc23)cc1NS(C)(=O)=O (centres unmarked) [Compound 28]
[1]
  IC50: 0.077 µM
[2]
  α/δ (ratio of IC50 values against PI3Kα to PI3Kδ): 63
[4]
  β/δ (ratio of IC50 values against PI3Kβ to PI3Kδ): >129
[5]
  γ/δ (ratio of IC50 values against PI3Kγ to PI3Kδ): >129

## COc1ncc(-c2nc(N3CCOCC3)nc3c(CN4CCN(C)C(=O)C4)cc(F)cc23)cc1NS(C)(=O)=O [Compound 29]
[1]
  IC50: 0.019 µM
[2]
  α/δ (ratio of IC50 values against PI3Kα to PI3Kδ): 22

## COc1ncc(-c2nc(N3CCOCC3)nc3c(O[C@@H]4CCOC4)cc(F)cc23)cc1NS(C)(=O)=O [Compound 30]
[1]
  IC50: 0.041 µM
[2]
  α/δ (ratio of IC50 values against PI3Kα to PI3Kδ): 15
[3]
  IC50: 0.352 µM

## COc1ncc(-c2nc(N3CCOCC3)nc3c(OCC4CCOCC4)cc(F)cc23)cc1NS(C)(=O)=O [Compound 31]
[1]
  IC50: 0.027 µM
[2]
  α/δ (ratio of IC50 values against PI3Kα to PI3Kδ): 24

## COc1ncc(-c2nc(N3CCOCC3)nc3c(OC4CCOCC4)cc(F)cc23)cc1NS(C)(=O)=O [Compound 32]
[1]
  IC50: 0.038 µM
[2]
  α/δ (ratio of IC50 values against PI3Kα to PI3Kδ): 23

## COc1ncc(-c2nc(N3CCOCC3)nc3c(OCCN4CCCCC4)cc(F)cc23)cc1NS(C)(=O)=O [Compound 33]
[1]
  IC50: 0.0471 µM
[2]
  α/δ (ratio of IC50 values against PI3Kα to PI3Kδ): 113
[3]
  IC50: 0.26 µM

## COc1ncc(-c2nc(N3CCOCC3)nc3c(OC4CC(C(C)(C)O)C4)cc(F)cc23)cc1NS(C)(=O)=O (centres unmarked) [Compound 37]
[1]
  IC50: 0.117 µM
[2]
  α/δ (ratio of IC50 values against PI3Kα to PI3Kδ): 42
[4]
  β/δ (ratio of IC50 values against PI3Kβ to PI3Kδ): >85
[5]
  γ/δ (ratio of IC50 values against PI3Kγ to PI3Kδ): >85

## COc1ncc(-c2nc(N3CCOCC3)nc3c(OC4CN(C5CCOCC5)C4)cc(F)cc23)cc1NS(C)(=O)=O [Compound 38]
[1]
  IC50: 0.0158 µM
[2]
  α/δ (ratio of IC50 values against PI3Kα to PI3Kδ): 28
[3]
  IC50: 0.032 µM

## COc1ncc(-c2nc(N3CCOCC3)nc3c(OC4CN(C(=O)C(C)C)C4)cc(F)cc23)cc1NS(C)(=O)=O [Compound 39]
[1]
  IC50: 0.022 µM
[2]
  α/δ (ratio of IC50 values against PI3Kα to PI3Kδ): 58
[3]
  IC50: 0.107 µM
